Drawing on patent US20110201564A1, “SUBSTITUTED 7-SULFANYLMETHYL, 7-SULFINYLMETHYL AND 7-SULFONYLMETHYL INDOLES AND USE THEREOF” (BAYER SCHERING PHARMA AKTIENGESELLSCHAFT, priority 2008, published 2011), this text covers IC50 and Partition ratio r for four compounds.

Read-outs that look alike come from different tables or passages of the source.

One series deals with T1, androgen receptor (AR) (Homo sapiens, UniProt P10275).
T1 construct: of the androgen receptor (AR, amino acids 667-919); expressed in transfected cells; host or cells: CHO K1
T1 sequence (P10275 668-920): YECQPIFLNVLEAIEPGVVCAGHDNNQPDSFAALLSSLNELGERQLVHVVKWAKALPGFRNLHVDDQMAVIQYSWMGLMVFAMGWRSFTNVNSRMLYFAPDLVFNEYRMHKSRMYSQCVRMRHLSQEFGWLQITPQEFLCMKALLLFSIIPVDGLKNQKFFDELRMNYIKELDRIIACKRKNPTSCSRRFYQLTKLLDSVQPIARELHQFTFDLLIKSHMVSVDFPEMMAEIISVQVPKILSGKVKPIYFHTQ
In words: Cellular in vitro assay, GAL4-AR chimera luciferase reporter in CHO K1 cells (selectivity). Format: cell-based. The settings on record: antagonism vs dihydrotestosterone; CHO K1 GAL4-AR LBD luciferase reporter. The essentials:
(§1)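 CHO K1 cells stably expressing GAL4 DNA-binding domain fused to human MR, PR or AR ligand-binding domains plus GAL4-driven firefly luciferase; compounds added 10–30 min before agonist (aldosterone, progesterone or dihydrotestosterone), luciferase read after 5–6 h; IC50 from sigmoidal concentration–response curves.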
In general terms: In a reporter assay the amount or activity of a reporter protein is the signal.

In series [1] the target is T2, CYP3A4 (Homo sapiens, UniProt P08684).
T2 construct: using human liver microsomes (pool from various individuals); from tissue; host or cells: human liver microsomes (pool from various individuals)
In words: Assay to assess irreversible CYP3A4 inhibition (mechanism-based inhibition) in human liver microsomes. Format: in vitro ADME. Particulars: CYP3A4 activity as 6β-hydroxytestosterone formation, 2-20 μM. An excerpt:
8. Assay to Assess Irreversible CYP3A4 Inhibition
Cytochrom P450 enzyme inhibition, especially irreversible enzyme inhibition, also referred to as mechanism-based inhibition (MBI), is an unwanted metabolic property of a substance which may, on concurrent administration of other medicaments, lead to considerable drug interactions. Criteria for the presence of an irreversible inhibition are a time-, concentration- and cofactor- (nicotinamide adenine dinucleotide phosphate, NADPH) dependent inhibition. To this end, the compounds of the invention are incubated in vitro with human liver microsomes, the influence on the CYP3A4 activity and the metabolic degradation of the novel active ingredient is determined, and the prototypical parameters kinact, Ki and the partition ratio r are ascertained therefrom.
The compounds of the invention are incubated with concentrations of 2-20 μM. To this end, stock solutions of the active ingredients with a concentration of 0.2-2 mM are prepared in acetonitrile and then pipetted with a 1:100 dilution into the incubation mixture. The liver microsomes are incubated in 50 mM potassium phosphate buffer (pH 7.4) with and without NADPH-generating system consisting of 1 mM NADP^+, 5 mM glucose 6-phosphate and 1 unit of glucose 6-phosphate dehydrogenase, at 37° C. After defined preincubation times of 0-50 min, aliquots are removed from these mixtures, diluted 1:25 in a new incubation, and incubated in the presence of testosterone and new NADPH-generating system again for 20 min. These incubation mixtures are stopped with acetonitrile (final concentration about 30% v/v), and the protein is removed by centrifugation at about 15 000×g. The samples stopped in this way are either analyzed directly or stored at −20° C. until analyzed.
The analysis takes place by high performance liquid chromatography with mass spectrometry detection (LC-MS). The formation of 6β-hydroxytestosterone as measure of CYP3A4 activity, and the test substance still remaining is quantified. The parameters kinact, Ki and the partition ratio r are determined therefrom so as to assess the novel active ingredients in relation to MBI.
Background: Microsomes from liver hold many membrane-bound enzymes, among them those of drug oxidation.

Series [2] has as its target T3, human mineralocorticoid receptor (MR) (Homo sapiens, UniProt P08235).
T3 construct: expressed in transfected cells; host or cells: CHO K1
T3 sequence (P08235 734-984 limits assumed): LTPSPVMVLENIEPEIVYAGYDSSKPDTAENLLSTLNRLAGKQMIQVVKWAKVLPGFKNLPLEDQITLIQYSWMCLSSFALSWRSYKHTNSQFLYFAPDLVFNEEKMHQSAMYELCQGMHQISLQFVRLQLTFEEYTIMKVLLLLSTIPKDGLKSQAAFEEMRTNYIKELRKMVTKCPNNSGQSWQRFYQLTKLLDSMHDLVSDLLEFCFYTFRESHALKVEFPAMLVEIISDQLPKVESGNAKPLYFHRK
In words: Cellular in vitro assay, GAL4-MR chimera luciferase reporter in CHO K1 cells (inhibitory MR activity). Format: cell-based. Particulars: antagonism vs aldosterone; CHO K1 GAL4-MR LBD luciferase reporter. The method in brief:
as §1

Series [3] concerns the target T4, progesterone receptor (PR) (Homo sapiens, UniProt P06401).
T4 construct: of the progesterone receptor (PR, amino acids 680-933); expressed in transfected cells; host or cells: CHO K1
T4 sequence (P06401 680-933): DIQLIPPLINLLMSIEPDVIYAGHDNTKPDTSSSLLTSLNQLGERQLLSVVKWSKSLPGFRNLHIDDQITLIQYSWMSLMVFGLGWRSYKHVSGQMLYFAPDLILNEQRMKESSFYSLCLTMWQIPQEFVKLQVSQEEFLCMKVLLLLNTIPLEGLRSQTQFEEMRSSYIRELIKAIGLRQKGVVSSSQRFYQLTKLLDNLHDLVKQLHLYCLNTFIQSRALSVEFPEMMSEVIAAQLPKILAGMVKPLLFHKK
In words: Cellular in vitro assay, GAL4-PR chimera luciferase reporter in CHO K1 cells (selectivity). The format is cell-based. The settings on record: antagonism vs progesterone; CHO K1 GAL4-PR LBD luciferase reporter. The essentials:
as §1

For series [4], the target named is T2, CYP3A4. The experiment in a line: CYP inhibition assay with human liver microsomes. The format is in vitro ADME. The source says:
Inhibitory properties of an active ingredient on the cytochromes P450 (CYP) of the human body may entail extensive clinical effects (drug interactions) because most of the prescribed medicaments are degraded (metabolized) by these enzymes. The ones involved in this are in particular the CYP isoenzymes of the 1A and 2C families, CYP2D6 and, with a proportion of almost 50%, CYP3A4. In order to preclude or minimize these possible drug interactions (Drug-Drug Interactions, DDI), the ability of substances to be able to inhibit CYP1A2, CYP2C8, CYP2C9, CYP2D6 and CYP3A4 in humans is investigated using human liver microsomes (pool from various individuals). This takes place by measuring CYP isoform-specific metabolites formed from standard substrates such as, for example, phenacetin, amodiaquin, diclofenac, dextromethorphan, midazolam and testosterone. The inhibitory effects are investigated at six different concentrations of the test compounds (1.5, 3.1, 6.3, 12.5, 25 and 50 μM as maximum concentration or 0.6, 1.3, 2.5, 5, 10 and 20 μM as maximum concentration), comparing with the extent of the CYP isoform-specific metabolite formation of the standard substrates in the absence of the test compounds, and calculating the corresponding IC50 values. CYP isoform-specific standard inhibitors such as, for example, fluvoxamine, quercetin, sulfaphenazole, fluoxetine and ketoconazole serve as control of the results obtained. In order to obtain indications of the possible mechanism-based inhibitors (MBI) on CYP3A4, the human liver microsomes are incubated in the presence of the inhibitor to be investigated for 30 minutes before the addition of midazolam or testosterone as standard substrates of CYP3A4. A reduction in the IC50 obtained by comparison with the mixture without preincubation serves as an indicator of a mechanism-based inhibition. Mibefradil serves as positive control.
The incubations of the standard substrates with human liver microsomes (23-233 μg/mL) in the presence of the test compound (as potential inhibitor) are carried out in 96-well plates in a workstation (Tecan, Genesis, Crailsheim, Germany) at 37° C. The incubation times are 15-20 minutes. The test compounds are preferably dissolved in acetonitrile (1.0 or 2.5 mM stock solution). The 96-well plates are produced by sequential addition of a stock solution of NADP+, EDTA, glucose 6-phosphate and glucose-6-phosphate dehydrogenase in phosphate buffer (pH 7.4), the test compound, and a solution of standard substrate and human liver microsomes in phosphate buffer (pH 7.4). The total volume is 200 μl. The corresponding control incubations with and without standard inhibitor also take place on the 96-well plate. The incubations are stopped after the respective incubation time by adding 100 μl of acetonitrile in which there is a suitable internal standard. Precipitated proteins are removed by centrifugation (3000 rpm, 10 minutes, 10° C.). The resulting supernatants of the respective plates are combined on one plate and analyzed by LC-MS/MS. The […] values are generated from the resulting measured data and used to assess the inhibitory potential of the test compound.

T2 sequence (P08684 whole entry): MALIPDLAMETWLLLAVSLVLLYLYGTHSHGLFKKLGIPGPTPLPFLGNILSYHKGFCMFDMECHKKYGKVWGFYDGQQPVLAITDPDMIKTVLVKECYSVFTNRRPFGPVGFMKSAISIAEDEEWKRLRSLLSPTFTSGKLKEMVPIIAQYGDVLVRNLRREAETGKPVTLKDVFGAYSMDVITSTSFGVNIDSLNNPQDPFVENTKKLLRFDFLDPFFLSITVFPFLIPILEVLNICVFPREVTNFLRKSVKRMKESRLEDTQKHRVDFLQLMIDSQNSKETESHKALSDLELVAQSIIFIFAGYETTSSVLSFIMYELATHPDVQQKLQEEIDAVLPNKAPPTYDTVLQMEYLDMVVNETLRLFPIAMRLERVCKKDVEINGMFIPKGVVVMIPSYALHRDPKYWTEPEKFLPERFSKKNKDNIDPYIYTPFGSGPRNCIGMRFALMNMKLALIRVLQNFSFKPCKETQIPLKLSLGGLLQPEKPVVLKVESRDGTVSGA

`CS(=O)(=O)Cc1cccc2c(C(CCC#N)c3ccc(C(F)(F)F)cc3)c[nH]c12` (single isomer, unassigned) [Example 56-1, 4-{7-[(Methylsulfonyl)methyl]-1H-indol-3-yl}-4-[4-(trifluoromethyl)phenyl]butanonitrile]: the results for the IC50 (on androgen receptor (AR); in series [2]; in series [3]) were 5.67 µM, 0.09 µM and 4.07 µM, respectively. The Partition ratio r at CYP3A4 [1] came to 100.

Take `CS(=O)(=O)Cc1cccc2c(C(c3ccc(F)cc3)c3ccc(Cl)cc3F)c[nH]c12` (single isomer, unassigned) [Example 118-1, 3-[(4-Chloro-2-fluorophenyl)(4-fluorophenyl)methyl]-7-[(methylsulfonyl)methyl]-1H-indole]: the IC50 on CYP3A4 [4] (30 min preincubation with test compound before substrate, read-out: CYP 3A4 Preincubation, 30 min.) was 11.2 µM; on CYP3A4 [4] (without preincubation, read-out: CYP 3A4 Coincubation), more than 20 µM. For the same compound, the Partition ratio r at CYP3A4 [1] turned out to be 250.

In the case of `CS(=O)(=O)Cc1cc(F)cc2c(C(c3ccc(F)cc3Cl)C3CC3C#N)c[nH]c12` (single isomer, unassigned) [Example 266-1, 2-[(2-Chloro-4-fluorophenyl){5-fluoro-7-[(methylsulfonyl)methyl]-1H-indol-3-yl}methyl]cyclopropanecarbonitrile], the IC50 at androgen receptor (AR) came out at 1.29 µM; in series [2] it was 0.007 µM; in series [3], 3 µM. At CYP3A4 [1], the Partition ratio r is listed as more than 200.

`CS(=O)(=O)Cc1cc(F)cc2c(C(c3ccc(Cl)cc3)C3CC3C#N)c[nH]c12` (single isomer, unassigned) [Example 277-1-1, 2-[(4-Chlorophenyl){5-fluoro-7-[(methylsulfonyl)methyl]-1H-indol-3-yl}methyl]cyclopropane-carbonitrile]: the IC50 against androgen receptor (AR) was 3.9 µM; in series [2], 0.008 µM; in series [3], 10 µM. For the same compound, on CYP3A4 [1], the Partition ratio r was more than 200.
